Patent publication US11072575B1, “Method of preparing a cinnamyl alcohol retinoic acid ester with antioxidant and antibacterial activities” (priority 2020, dated 2021)

What was measured:
[1] = DPPH radical scavenging activity assay; settings: for DPPH clearance rate: 30 min, 517 nm, n = 3
Description: In the DPPH molecule, due to the presence of multiple electron-withdrawing —NO2 and large π bonds of the benzene ring, nitrogen free radical is stabilized. Its methanol solution is purple and has a maximum absorption peak at 517 nm. After the addition of an antioxidant, DPPH captures an electron to be paired with the free electron, and the purple fades and turns into a yellow substance. The absorption at 517 nm disappears, and the degree of fading is quantitatively related to the number of electrons it captures. Based on this principle, a spectrophotometer is used to detect the change of the absorbance of the DPPH radical and the sample solution, and the ability of the sample to provide hydrogen atoms and scavenge free radicals can be measured. […] Vc (positive control), cinnamyl alcohol retinoic acid ester (sample), cinnamyl alcohol (control) and retinoic acid (control). The sample solution was subjected to gradient dilution with toluene, and three sets of controls were separately dissolved in a test tube with a certain amount of toluene to prepare the same concentration gradient as the sample. [table] […] Clearance calculation: Clearance Rate (%)=[1−(Ai−Aj)/Ao]*100%

[2] = system: Multi-resistant Staphylococcus aureus 18-596; assay: Paper diffusion drug sensitivity test, multi-resistant Staphylococcus aureus 18-596; settings: for Zone of inhibition: drug sensitive paper 6.35 mm, test drugs 30 μg/tablet, 37° C. 24 h; for Antibacterial effect (in words): summary of Table 4
[3] = system: Multi-resistant Pseudomonas aeruginosa 18-202; assay: Paper diffusion drug sensitivity test, multi-resistant Pseudomonas aeruginosa 18-202; settings: for Zone of inhibition: drug sensitive paper 6.35 mm, test drugs 30 μg/tablet, 37° C. 24 h; for Antibacterial effect (in words): summary of Table 4

Row | Compound | DPPH clearance rate ([1]; 1.76 ppm in toluene) [%] | DPPH clearance rate ([1]; 8.80 ppm in toluene) [%] | DPPH clearance rate ([1]; 21.12 ppm in toluene) [%] | DPPH clearance rate ([1]; 42.24 ppm in toluene) [%] | DPPH clearance rate ([1]; 79.20 ppm in toluene) [%] | DPPH clearance rate ([1]; 112.64 ppm in toluene) [%] | DPPH clearance rate ([1]; 281.60 ppm in toluene) [%] | DPPH clearance rate ([1]; 492.80 ppm in toluene) [%] | DPPH clearance rate ([1]; 792.00 ppm in toluene) [%] | DPPH clearance rate ([1]; 915.20 ppm in toluene) [%] | Zone of inhibition [2] [mm] | Zone of inhibition [3] [mm] | Antioxidant activity (in words) ([1]; summary) | Antibacterial effect (in words) [2] | Antibacterial effect (in words) [3]
1 | O=C1O[C@H]([C@@H](O)CO)C(O)=C1O [Vc] | 23.16 | 33.47 | 79.63 | 89.55 | 97.42 | 97.53 | 98.29 | 99.06 | 99.10 | 99.28 | – | – | – | – | –
2 | CC1=C(/C=C/C(C)=C/C=C/C(C)=C/C(=O)O)C(C)(C)CCC1 [Retinoic acid, retinoic acid] | – | – | – | – | – | – | – | – | – | – | 8 | 7 | – | – | –
3 | CN[C@H](CC(C)C)C(=O)N[C@H]1C(=O)N[C@@H](CC(N)=O)C(=O)N[C@H]2C(=O)N[C@H]3C(=O)N[C@H](C(=O)N[C@H](C(=O)O)c4cc(O)cc(O)c4-c4cc3ccc4O)[C@H](O)c3ccc(c(Cl)c3)Oc3cc2cc(c3O[C@@H]2O[C@H](CO)[C@@H](O)[C@H](O)[C@H]2O[C@H]2C[C@](C)(N)[C@H](O)[C@H](C)O2)Oc2ccc(cc2Cl)[C@H]1O [Vancomycin] | – | – | – | – | – | – | – | – | – | – | 21 | 9 | – | – | –
4 | CC1=C(/C=C/C(C)=C/C=C/C(C)=C/C(=O)OC/C=C/c2ccccc2)C(C)(C)CCC1 [Cinnamyl alcohol retinoic acid ester, (2E,4E,6E,8E)-cinnamyl 3,7-dimethyl-9-(2,6,6-trimethylcyclohex-1-en-1-yl)nona-2,4,6,8-tetraenoate] | 13.16 | 17.53 | 31.95 | 42.08 | 68.62 | 75.46 | 79.44 | 83.15 | 90.77 | 95.43 | 20 | 21 | excellent antioxidant activity | strong resistance | strong resistance
5 | OCC=Cc1ccccc1 [Cinnamyl alcohol, cinnamyl alcohol] | 6.89 | 7.95 | 17.86 | 25.71 | 37.96 | 44.56 | 59.23 | 64.94 | 73.54 | 75.82 | 14 | 6 | – | little inhibitory effect | little inhibitory effect
6 | Gentamicin | – | – | – | – | – | – | – | – | – | – | 10 | 21 | – | – | –
